Consider four compounds from patent publication US11160813B2, “Combination therapy for nonalcoholic steatohepatitis (NASH) and liver fibrosis” (Modunex Bio Corp., priority 2016, dated 2021).

The subject of one series is mouse model of NASH. Kind of series: mouse model of NASH and fibrosis induced by streptozocin and high fat diet. It is filed as in vivo, C59BL/6J mice. The settings on record: for NAS score: alone or in combination; for liver enzyme AST / liver enzyme ALP: OCA. Here is the method: We have utilized a well validated mice model in which the NASH and fibrosis was induced by sequential induction of diabetes mellitus and a high fat diet (14). On day 2, C59BL/6J mice were injected with streptozocin, then treated with high fat diet from week 4 until week 9. The intervention treatment started from week 5 until week 9. On week 9, these mice were euthanized.
NAS scores were determined according to the consensus by Nonalcoholic Steatohepatitis Clinical Research Network (13)
Fibrosis scores were determined according to the consensus by Nonalcoholic Steatohepatitis Clinical Research Network (13).

The conditions of series [1]: HIV patients with HCV infection; cited from earlier work.
For the next series, the system named is CCR5. The settings on record: animal model; cited from earlier work.
The conditions of series [2]: cited from earlier work.
The conditions of series [3]: cited from earlier work; for pruritus: placebo 38%.
For series [4] the following is noted: cited from earlier work. This is another data set of the same source.
For series [5] the following is noted: cited from earlier work. This is another data set of the same source.
For series [6] the following is noted: recent studies; cited from earlier work.
Where [7] appears, read: FIG. 7B, MK-0812, alone or together.

“Also recorded” adds a separate entry of the source. Like-named read-outs stand apart in the source and are kept apart here.

For `CO[C@@H]1COCC[C@@H]1N[C@@H]1CC[C@@](C(=O)N2CCc3ncc(C(F)(F)F)cc3C2)(C(C)C)C1` [MK-0812], in the series with mouse model of NASH (FIG. 1B, OCA and MK-0812 (10 mg twice daily)), the NAS score entry is listed as “modest reduction of NAS scores; also recorded: little effect”. Further, in the series on mouse model of NASH (FIG. 2B, OCA and MK-0812), the “fibrosis evidenced by staining of collagen (liver histology)” value was “reduction of fibrosis”. For the same compound, in the series with mouse model of NASH (FIG. 3B to 7B), the “results in the NASH model when a CCR2 antagonist was used instead of MVC” value is “Comparable results”. Moreover, the fibrosis score entry in the series on mouse model of NASH (FIG. 3B, OCA and MK-0812, combination with half dose OCA and MK-0812 10 mg twice daily) is listed as “reduction of fibrosis score”. The liver inflammation result with mouse model of NASH (FIG. 4B, OCA and MK-0812) is “reduction of liver inflammation”. For the same compound, the hepatocyte ballooning score result in the series with mouse model of NASH (FIG. 5B, OCA and MK-0812) is on record as “reduction of hepatocyte ballooning score”. The steatosis result with mouse model of NASH (FIG. 6B, full dose OCA, MK-0812 alone) is on record as “no apparent effect on steatosis”. The “liver enzyme AST” value in the series with mouse model of NASH (setting [7]) was “not observed”.
As for maraviroc [MVC], the NAS score entry with mouse model of NASH (FIG. 1A, maraviroc 45 mg/kg once daily orally, OCA 30 mg/kg once daily, 4 wks) is “modest reduction of NAS scores”; in the series on mouse model of NASH (FIG. 1A, maraviroc 45 mg/kg once daily orally, OCA 30 mg/kg once daily, 4 wks, listed as maravoric), “limited effect on the NAS score”. Also, the “fibrosis evidenced by staining of collagen (liver histology)” value in the series on mouse model of NASH (FIG. 2A, maraviroc 45 mg/kg, OCA 30 mg/kg once daily, 4 wks) is given as “reduction of fibrosis”; with mouse model of NASH (FIG. 2A, maraviroc 45 mg/kg, OCA 30 mg/kg once daily, 4 wks, listed as maraviroc), “effective in reducing fibrosis; also recorded: more effective than OCA in reducing fibrosis”. Further, the fibrosis score result in the series with mouse model of NASH (FIG. 3A, maraviroc 45 mg/kg, OCA 30 mg/kg once daily, 4 wks) is “reduction of fibrosis score”. The liver inflammation entry with mouse model of NASH (FIG. 4A, maraviroc 45 mg/kg, OCA 30 mg/kg once daily, 4 wks) is “reduction of liver inflammation”. The hepatocyte ballooning score result in the series with mouse model of NASH (FIG. 5A, maraviroc 45 mg/kg, OCA 30 mg/kg once daily, 4 wks) was “reduction of the hepatocyte ballooning score”. Besides, the steatosis entry in the series on mouse model of NASH (FIG. 6A, maraviroc 45 mg/kg, OCA 30 mg/kg once daily, 4 wks) is “marginal effect on steatosis”. In addition, the liver fibrosis result in series [1] is listed as “Reducing liver fibrosis has been observed”. Further, in the series on CCR5, the “NAS score and fibrosis” value is “effective in an animal model for reducing NAS score and fibrosis”.
For `CC[C@H]1[C@@H](O)[C@@H]2[C@H](CC[C@]3(C)[C@@H]([C@H](C)CCC(=O)O)CC[C@@H]23)[C@@]2(C)CC[C@@H](O)C[C@@H]12` [OCA, 6 α-ethyl-chemodeoxycholic acid], the “liver enzyme AST” value is “elevation in AST and ALP liver enzymes; also recorded: elevation of the liver enzyme AST” with mouse model of NASH (FIG. 7A, MVC, alone or together); “elevation of the liver enzyme AST” in the series with mouse model of NASH (setting [7]). The “liver enzyme ALP” value with mouse model of NASH (FIG. 8A, MVC, alone or together) was “elevation in AST and ALP liver enzymes; also recorded: elevation of the liver enzyme ALP”; with mouse model of NASH (FIG. 8B, MK-0812) it was “elevation of the liver enzyme ALP”. For the same compound, the “exposure-adjusted incidence for all serious and otherwise clinically significant liver-related adverse reactions and isolated elevations in liver biochemical test” value is on record as 5.2 per 100 patient exposure years (PEY) in series [2] (10 mg group, placebo 2.4); 19.8% in series [2] (25 mg group); 54.5% in series [2] (50 mg group). Further, the pruritus in series [3] (10 mg once daily) was 56%; in series [3] (titration regimen) it was 70%. Also, the HDL result in series [3] (dose related) is on record as “dose related reduction in HDL; also recorded: reduction of HDL”. The severe pruritus in series [3] (patients receiving OCA) is listed as 19-23%. For the same compound, the frequency of pruritus result in series [3] (reported frequency) is “up to 80%”. Also, the bile duct histology result in series [4] (26-week oral, rats) is recorded as “bile duct hyperplasia”. The clinical chemistry parameters entry in series [4] (26-week oral, rats) was “increases in ALT, AST and ALP”. In addition, in series [4] (26-week oral, rats), the liver weight result was “increased liver weight”. Also, in series [4] (rat, in vivo), the “safety margin relative to recommended human dose” value is on record as 2.3 fold. Moreover, the ALT levels entry in series [5] (9-month oral, dogs) is recorded as “elevated ALT levels”. Besides, the “clinical signs of toxicity that could be associated with liver function” value in series [5] (dog, in vivo, po) is “yellow discoloration of skin, mucous membrane, and eyes”.
`CCCCOCCOc1ccc(-c2ccc3c(c2)/C=C(/C(=O)Nc2ccc([S@@+]([O-])Cc4cncn4CCC)cc2)CCCN3CC(C)C)cc1` [cenicriviroc]: in series [6], the “effect on NASH” value is “marginal effect on NASH” and the effect on fibrosis result is reported as “relatively more significant effect on fibrosis”.
